In PubChem BioAssay AID1963866 (Molecular Pharmacology Branch, DTP, NCI, 2024):

System: PDC KRAS tumor spheroids with HUVEC/MSC, viability
Experiment: Anticancer human tumor 349418-098-R-PDC patient-derived lung adenocarcinoma cell line growth inhibition [KRAS2]
Settings: for IC50: curve of first compound; for viability, T/C: stronger effect = lower value
How it was run: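 KRAS-mutant tumor cells were grown as spheroids with HUVEC endothelial cells and human MSCs as stroma. Targeted agents were tested alone and with KRAS pathway inhibitors. Doses started at or near clinical Cmax, or 10 microM, descending half-log.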

[1] = second compound 0.1 µM, first compound 0.01 µM
[2] = second compound 0.1 µM, first compound 0.0316 µM
[3] = second compound 0.316 µM, first compound 0.01 µM
[4] = second compound 0.316 µM, first compound 0.0316 µM
[5] = second compound 1 µM, first compound 0.01 µM
[6] = second compound 1 µM, first compound 0.0316 µM
[7] = second compound 3.16 µM, first compound 0.01 µM
[8] = second compound 3.16 µM, first compound 0.0316 µM
[9] = second compound 10 µM, first compound 0.01 µM
[10] = second compound 10 µM, first compound 0.0316 µM
[11] = second compound 0.1 µM, first compound 0.1 µM
[12] = second compound 0.1 µM, first compound 0.316 µM
[13] = second compound 0.1 µM, first compound 1 µM
[14] = second compound 0.1 µM, first compound 3.16 µM
[15] = second compound 0.316 µM, first compound 0.1 µM
[16] = second compound 0.316 µM, first compound 0.316 µM
[17] = second compound 0.316 µM, first compound 1 µM
[18] = second compound 0.316 µM, first compound 3.16 µM
[19] = second compound 1 µM, first compound 0.1 µM
[20] = second compound 1 µM, first compound 0.316 µM
[21] = second compound 1 µM, first compound 1 µM
[22] = second compound 1 µM, first compound 3.16 µM
[23] = second compound 3.16 µM, first compound 0.1 µM
[24] = second compound 3.16 µM, first compound 0.316 µM
[25] = second compound 3.16 µM, first compound 1 µM
[26] = second compound 3.16 µM, first compound 3.16 µM
[27] = second compound 10 µM, first compound 0.1 µM
[28] = second compound 10 µM, first compound 0.316 µM
[29] = second compound 10 µM, first compound 1 µM
[30] = second compound 10 µM, first compound 3.16 µM
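Further: spheroids exposed to compounds for seven days before readout.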

Compound: CC(=O)Nc1cccc(-n2c(=O)n(C3CC3)c(=O)c3c(Nc4ccc(I)cc4F)n(C)c(=O)c(C)c32)c1 + CC1OCC2(CCN(c3cnc(Sc4ccnc(N)c4Cl)c(N)n3)CC2)C1N
- IC50 (second compound 0.1 µM): < 0.1 nM
- IC50 (second compound 0.316 µM): < 0.1 nM
- IC50 (second compound 1 µM): < 0.1 nM
- IC50 (second compound 3.16 µM): < 0.1 nM
- IC50 (second compound 10 µM): < 0.1 nM
- viability, T/C (second compound 0.1 µM, first compound 0.0001 µM): 25%
- viability, T/C (second compound 0.1 µM, first compound 0.000316 µM): 10.6%
- viability, T/C (second compound 0.1 µM, first compound 0.001 µM): 8.26%
- viability, T/C (second compound 0.1 µM, first compound 0.00316 µM): 7.14%
- viability, T/C [1]: 6.71%
- viability, T/C [2]: 4.89%
- viability, T/C (second compound 0.316 µM, first compound 0.0001 µM): 13.9%
- viability, T/C (second compound 0.316 µM, first compound 0.000316 µM): 9.13%
- viability, T/C (second compound 0.316 µM, first compound 0.001 µM): 6.31%
- viability, T/C (second compound 0.316 µM, first compound 0.00316 µM): 6.44%
- viability, T/C [3]: 5.73%
- viability, T/C [4]: 4.97%
- viability, T/C (second compound 1 µM, first compound 0.0001 µM): 12.5%
- viability, T/C (second compound 1 µM, first compound 0.000316 µM): 6.75%
- viability, T/C (second compound 1 µM, first compound 0.001 µM): 5.3%
- viability, T/C (second compound 1 µM, first compound 0.00316 µM): 5.39%
- viability, T/C [5]: 5.41%
- viability, T/C [6]: 4.31%
- viability, T/C (second compound 3.16 µM, first compound 0.0001 µM): 16.2%
- viability, T/C (second compound 3.16 µM, first compound 0.000316 µM): 6.1%
- viability, T/C (second compound 3.16 µM, first compound 0.001 µM): 5.56%
- viability, T/C (second compound 3.16 µM, first compound 0.00316 µM): 4.05%
- viability, T/C [7]: 3.76%
- viability, T/C [8]: 3.53%
- viability, T/C (second compound 10 µM, first compound 0.0001 µM): 18.9%
- viability, T/C (second compound 10 µM, first compound 0.000316 µM): 6.01%
- viability, T/C (second compound 10 µM, first compound 0.001 µM): 3.71%
- viability, T/C (second compound 10 µM, first compound 0.00316 µM): 3.71%
- viability, T/C [9]: 3.6%
- viability, T/C [10]: 3.62%

Compound: CC1COCCN1c1cc(-c2ccnn2C)c2ccnc(-c3ccn[nH]3)c2n1 (stereo not given) + C=CC(=O)N1CCN(c2nc(=O)n(-c3c(C)ccnc3C(C)C)c3nc(-c4c(O)cccc4F)c(F)cc23)C(C)C1
- IC50 (second compound 0.1 µM): 27.4 nM
- IC50 (second compound 0.316 µM): 26.4 nM
- IC50 (second compound 1 µM): 27.1 nM
- IC50 (second compound 3.16 µM): 15.4 nM
- IC50 (second compound 10 µM): < 10 nM
- viability, T/C [1]: 76.3%
- viability, T/C [2]: 46.3%
- viability, T/C [11]: 9.21%
- viability, T/C [12]: 6.2%
- viability, T/C [13]: 4.48%
- viability, T/C [14]: 4.43%
- viability, T/C [3]: 117%
- viability, T/C [4]: 37.7%
- viability, T/C [15]: 8.7%
- viability, T/C [16]: 4.96%
- viability, T/C [17]: 4.36%
- viability, T/C [18]: 4.34%
- viability, T/C [5]: 101%
- viability, T/C [6]: 42%
- viability, T/C [19]: 7.61%
- viability, T/C [20]: 5.66%
- viability, T/C [21]: 4.24%
- viability, T/C [22]: 4.16%
- viability, T/C [7]: 69%
- viability, T/C [8]: 18.1%
- viability, T/C [23]: 6.37%
- viability, T/C [24]: 4.8%
- viability, T/C [25]: 4.05%
- viability, T/C [26]: 4.49%
- viability, T/C [9]: 21.2%
- viability, T/C [10]: 5.73%
- viability, T/C [27]: 4.31%
- viability, T/C [28]: 4.56%
- viability, T/C [29]: 4.61%
- viability, T/C [30]: 4.96%

Compound: CCNC(=O)CC1N=C(c2ccc(Cl)cc2)c2cc(OC)ccc2-n2c(C)nnc21 (stereo not given) + CNCc1ccccc1-c1csc(C(C)Nc2nc(C)nc3cc(OC)c(OC)cc23)c1
- IC50 (second compound 0.1 µM): 133 nM
- IC50 (second compound 0.316 µM): 124 nM
- IC50 (second compound 1 µM): 77.3 nM
- IC50 (second compound 3.16 µM): < 31.6 nM
- IC50 (second compound 10 µM): < 31.6 nM
- viability, T/C [2]: 103%
- viability, T/C [11]: 58.5%
- viability, T/C [12]: 24.3%
- viability, T/C [13]: 12.4%
- viability, T/C [14]: 2.7%
- viability, T/C (second compound 0.1 µM, first compound 10 µM): 1.11%
- viability, T/C [4]: 107%
- viability, T/C [15]: 55.7%
- viability, T/C [16]: 24.7%
- viability, T/C [17]: 13.5%
- viability, T/C [18]: 2.81%
- viability, T/C (second compound 0.316 µM, first compound 10 µM): 1.21%
- viability, T/C [6]: 86.6%
- viability, T/C [19]: 39.5%
- viability, T/C [20]: 13.9%
- viability, T/C [21]: 4.94%
- viability, T/C [22]: 0.98%
- viability, T/C (second compound 1 µM, first compound 10 µM): 0.31%
- viability, T/C [8]: 0.11%
- viability, T/C [23]: 0.08%
- viability, T/C [24]: 0.04%
- viability, T/C [25]: 0.02%
- viability, T/C [26]: 0.01%
- viability, T/C (second compound 3.16 µM, first compound 10 µM): 0.08%
- viability, T/C [10]: 0.11%
- viability, T/C [27]: 0.11%
- viability, T/C [28]: 0.09%
- viability, T/C [29]: 0.09%
- viability, T/C [30]: 0.08%
- viability, T/C (second compound 10 µM, first compound 10 µM): 0.28%
